We go through 28 compounds from US10428083B2, “Heterocyclylmethyl-thienouracile as antagonists of the adenosine-A2B-receptor” (BAYER PHARMA AKTIENGESELLSCHAFT, priority 2015, dated 2019).

In the assay the target is human adenosine A2b receptor (Homo sapiens (Human), UniProt P29275). Description: Cellular in vitro reporter gene test for A2b receptor activity (CHO-K1, CRE-luciferase, NECA stimulation). Type of assay: cell-based. As to conditions: recombinant CHO-K1 cell line, CRE-luciferase reporter, antagonism of EC50 concentration of NECA; in some cases means of several determinations, rounded to two significant figures; read-out: A2b receptor IC50. In short, it runs like this:
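CHO-K1 cells with CRE-driven luciferase; antagonists co-incubated with NECA at its EC50, determined in a pre-experiment on each test day. Luciferase read by luminescence 3 h after NECA addition.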

human adenosine A2b receptor, sequence (P29275 whole entry): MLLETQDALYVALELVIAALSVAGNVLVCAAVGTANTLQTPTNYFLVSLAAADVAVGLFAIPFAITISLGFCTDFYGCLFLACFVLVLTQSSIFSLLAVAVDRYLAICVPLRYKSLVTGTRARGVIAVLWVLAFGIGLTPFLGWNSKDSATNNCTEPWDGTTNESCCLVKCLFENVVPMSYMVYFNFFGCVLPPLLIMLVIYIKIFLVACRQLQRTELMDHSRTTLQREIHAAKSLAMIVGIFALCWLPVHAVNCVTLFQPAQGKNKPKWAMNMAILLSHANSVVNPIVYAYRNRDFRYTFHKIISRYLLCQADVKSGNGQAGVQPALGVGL

One may read the IC50 as the point on the concentration scale where inhibition reaches its midpoint. For the compound `COCCn1c(=O)n(CC(C)(C)C)c(=O)c2c(C)c(CN3CCNC3=S)sc21` [Example 151, 3-(2,2-Dimethylpropyl)-1-(2-methoxyethyl)-5-methyl-6-[(2-thioxoimidazolidin-1-yl)methyl]thieno[2,3-d]pyrimidine-2,4(1H,3H)-dione], the IC50 was found to be 5.7 nM. With `CCn1c(=O)c2c(C)c(CN3CCOC3=O)sc2n(CCC(F)(F)F)c1=O` [Example 21, 3-Ethyl-5-methyl-6-[(2-oxo-1,3-oxazolidin-3-yl)methyl]-1-(3,3,3-trifluoropropyl)thieno[2,3-d]pyrimidine-2,4(1H,3H)-dione] the figure was 5.1 nM; with `COCCn1c(=O)n(CC(C)C)c(=O)c2c(C)c(CN3CCNC3=S)sc21` [Example 39, 3-Isobutyl-1-(2-methoxyethyl)-5-methyl-6-[(2-thioxoimidazolidin-1-yl)methyl]thieno[2,3-d]pyrimidine-2,4(1H,3H)-dione], 3.6 nM; with `Cc1c(CN2CCNC2=O)sc2c1c(=O)n(CC(F)(F)F)c(=O)n2CC1CCCO1` (single isomer, unassigned) [Example 210, 5-Methyl-6-[(2-oxoimidazolidin-1-yl)methyl]-1-(tetrahydrofuran-2-ylmethyl)-3-(2,2,2-trifluoroethyl)thieno[2,3-d]pyrimidine-2,4(1H,3H)-dione], 9.1 nM. With `COC(C)Cn1c(=O)c2c(C)c(Cn3nc[nH]c3=O)sc2n(CCC(F)(F)F)c1=O` (single isomer, unassigned) [Example 441, 3-(2-Methoxypropyl)-5-methyl-6-[(5-oxo-4,5-dihydro-1H-1,2,4-triazol-1-yl)methyl]-1-(3,3,3-trifluoropropyl)thieno[2,3-d]pyrimidine-2,4(1H,3H)-dione] the figure was 8.6 nM; with `COCCn1c(=O)c2c(C)c(CN3CCNC(=O)C3=O)sc2n(CC2CCCO2)c1=O` (racemic) [Example 278, 6-[(2,3-Dioxopiperazin-1-yl)methyl]-3-(2-methoxyethyl)-5-methyl-1-(tetrahydrofuran-2-ylmethyl)thieno[2,3-d]pyrimidine-2,4(1H,3H)-dione], 130 nM; with `COC(=O)N=C1NCCN1Cc1sc2c(c1C)c(=O)n(CC(F)(F)F)c(=O)n2CC1CCO1` (racemic) [Example 383, Methyl [1-{[5-methyl-1-(oxetan-2-ylmethyl)-2,4-dioxo-3-(2,2,2-trifluoroethyl)-1,2,3,4-tetrahydrothieno[2,3-d]pyrimidin-6-yl]methyl}imidazolidin-2-ylidene]carbamate], 15 nM. `COCCn1c(=O)n(CC2COC2)c(=O)c2c(C)c(CN3CCNC3=O)sc21` [Example 335, 1-(2-Methoxyethyl)-5-methyl-3-(oxetan-3-ylmethyl)-6-[(2-oxoimidazolidin-1-yl)methyl]thieno[2,3-d]pyrimidine-2,4(1H,3H)-dione]: the 50% inhibitory concentration (IC50) turned out to be 270 nM. With `CCn1c(=O)c2c(C)c(CN3CCNC3=NC#N)sc2n(CC2CCO2)c1=O` (racemic) [Example 256, [1-{[3-Ethyl-5-methyl-1-(oxetan-2-ylmethyl)-2,4-dioxo-1,2,3,4-tetrahydrothieno[2,3-d]pyrimidin-6-yl]methyl}imidazolidin-2-ylidene]cyanamide] the figure was 11 nM; with `Cc1c(Cn2nc[nH]c2=O)sc2c1c(=O)n(CC(F)(F)F)c(=O)n2CC1CCCO1` (single isomer, unassigned) [Example 436, 5-Methyl-6-[(5-oxo-4,5-dihydro-1H-1,2,4-triazol-1-yl)methyl]-1-(tetrahydrofuran-2-ylmethyl)-3-(2,2,2-trifluoroethyl)thieno[2,3-d]pyrimidine-2,4(1H,3H)-dione], 65 nM. With `Cc1c(Cn2nc[nH]c2=O)sc2c1c(=O)n(C(C)C)c(=O)n2CC1CCCO1` (single isomer, unassigned) [Example 425, 3-Isopropyl-5-methyl-6-[(5-oxo-4,5-dihydro-1H-1,2,4-triazol-1-yl)methyl]-1-(tetrahydrofuran-2-ylmethyl)thieno[2,3-d]pyrimidine-2,4(1H,3H)-dione] the figure was 42 nM; with `COC(=O)N=C1NCCN1Cc1sc2c(c1C)c(=O)n(C(C)C)c(=O)n2CC1CCCO1` (racemic) [Example 380, Methyl [1-{[3-isopropyl-5-methyl-2,4-dioxo-1-(tetrahydrofuran-2-ylmethyl)-1,2,3,4-tetrahydrothieno[2,3-d]pyrimidin-6-yl]methyl}imidazolidin-2-ylidene]carbamate], 12 nM. With `CCn1c(=O)c2c(C)c(CN3CCCS3(=O)=O)sc2n(CCOC)c1=O` [Example 17, 6-[(1,1-Dioxido-1,2-thiazolidin-2-yl)methyl]-3-ethyl-1-(2-methoxyethyl)-5-methylthieno[2,3-d]pyrimidine-2,4(1H,3H)-dione] the figure was 16 nM; with `COCCn1c(=O)n(CCC(F)=C(F)F)c(=O)c2c(C)c(CN3CCNC3=O)sc21` [Example 321, 1-(2-Methoxyethyl)-5-methyl-6-[(2-oxoimidazolidin-1-yl)methyl]-3-(3,4,4-trifluorobut-3-en-1-yl)thieno[2,3-d]pyrimidine-2,4(1H,3H)-dione], 1.6 nM; with `CCn1c(=O)c2c(C)c(Cn3nc[nH]c3=O)sc2n(CCCF)c1=O` [Example 353, 3-Ethyl-1-(3-fluoropropyl)-5-methyl-6-[(5-oxo-4,5-dihydro-1H-1,2,4-triazol-1-yl)methyl]thieno[2,3-d]pyrimidine-2,4(1H,3H)-dione], 31 nM. Regarding `COC(C)Cn1c(=O)c2c(C)c(Cn3nc[nH]c3=O)sc2n(CCC(F)(F)F)c1=O` (racemic) [Example 440, 3-(2-Methoxypropyl)-5-methyl-6-[(5-oxo-4,5-dihydro-1H-1,2,4-triazol-1-yl)methyl]-1-(3,3,3-trifluoropropyl)thieno[2,3-d]pyrimidine-2,4(1H,3H)-dione], the IC50 was 23 nM.

On to `COCCn1c(=O)n(CCc2ccccc2)c(=O)c2c(C(F)(F)F)c(CN3CCOC3=O)sc21` [Example 22, 1-(2-Methoxyethyl)-6-[(2-oxo-1,3-oxazolidin-3-yl)methyl]-3-(2-phenylethyl)-5-(trifluoromethyl)thieno[2,3-d]pyrimidine-2,4(1H,3H)-dione], for which the IC50 was found to be 24 nM. With `CCOCCn1c(=O)c2c(C)c(CN3CCNC(=O)C3=O)sc2n(CCOC)c1=O` [Example 404, 6-[(2,3-Dioxopiperazin-1-yl)methyl]-3-(2-ethoxyethyl)-1-(2-methoxyethyl)-5-methylthieno[2,3-d]pyrimidine-2,4(1H,3H)-dione] the figure was 120 nM; with `Cc1c(CN2CCNC2=O)sc2c1c(=O)n(CC(C)(C)C)c(=O)n2CC1CCCO1` (racemic) [Example 406, 3-(2,2-Dimethylpropyl)-5-methyl-6-[(2-oxoimidazolidin-1-yl)methyl]-1-(tetrahydrofuran-2-ylmethyl)thieno[2,3-d]pyrimidine-2,4(1H,3H)-dione], 29 nM; with `CCOCCn1c(=O)c2c(C)c(CN3CCNC3=O)sc2n(CCC(F)(F)F)c1=O` [Example 326, 3-(2-Ethoxyethyl)-5-methyl-6-[(2-oxoimidazolidin-1-yl)methyl]-1-(3,3,3-trifluoropropyl)thieno[2,3-d]pyrimidine-2,4(1H,3H)-dione], 10 nM.

Consider `COCCn1c(=O)n(CC(C)(C)OC)c(=O)c2c(C)c(CN3CCNC(=O)C3=O)sc21` [Example 281, 6-[(2,3-Dioxopiperazin-1-yl)methyl]-1-(2-methoxyethyl)-3-(2-methoxy-2-methylpropyl)-5-methylthieno[2,3-d]pyrimidine-2,4(1H,3H)-dione], for which the IC50 turned out to be 46 nM. Then `Cc1c(CN2CCNC2=O)sc2c1c(=O)n(CC(F)(F)F)c(=O)n2CC1CCCO1` (racemic) [Example 209, 5-Methyl-6-[(2-oxoimidazolidin-1-yl)methyl]-1-(tetrahydrofuran-2-ylmethyl)-3-(2,2,2-trifluoroethyl)thieno[2,3-d]pyrimidine-2,4(1H,3H)-dione], with 12 nM; and `Cc1c(CN2CCNC2=S)sc2c1c(=O)n(CC(C)(C)C)c(=O)n2CCC(F)(F)F` [Example 149, 3-(2,2-Dimethylpropyl)-5-methyl-6-[(2-thioxoimidazolidin-1-yl)methyl]-1-(3,3,3-trifluoropropyl)thieno[2,3-d]pyrimidine-2,4(1H,3H)-dione], with 5.1 nM. Take `Cc1c(CN2CCNC2=O)sc2c1c(=O)n(CC(C)(C)O)c(=O)n2CCC(F)(F)F` [Example 227, 3-(2-Hydroxy-2-methylpropyl)-5-methyl-6-[(2-oxoimidazolidin-1-yl)methyl]-1-(3,3,3-trifluoropropyl)thieno[2,3-d]pyrimidine-2,4(1H,3H)-dione]: the IC50 stood at 22 nM. With `CCn1c(=O)c2c(C)c(Cn3[nH]ccc3=O)sc2n(CCC(F)(F)F)c1=O` [Example 127, 3-Ethyl-5-methyl-6-[(5-oxo-2,5-dihydro-1H-pyrazol-1-yl)methyl]-1-(3,3,3-trifluoropropyl)thieno[2,3-d]pyrimidine-2,4(1H,3H)-dione] the figure was 5.6 nM.

As to `COCCn1c(=O)n(CCC(F)(F)F)c(=O)c2c(C)c(CN3CCN(C)C3=O)sc21` [Example 337, 1-(2-Methoxyethyl)-5-methyl-6-[(3-methyl-2-oxoimidazolidin-1-yl)methyl]-3-(3,3,3-trifluoropropyl)thieno[2,3-d]pyrimidine-2,4(1H,3H)-dione], the IC50 worked out at 280 nM. With `COCCn1c(=O)c2c(C)c(CN3CCNC3=NC(=O)OC)sc2n(CCOC)c1=O` [Example 386, Methyl [1-{[1,3-bis(2-methoxyethyl)-5-methyl-2,4-dioxo-1,2,3,4-tetrahydrothieno[2,3-d]pyrimidin-6-yl]methyl}imidazolidin-2-ylidene]carbamate] the figure was 16 nM; with `Cc1c(Cn2nc[nH]c2=O)sc2c1c(=O)n(CC(F)(F)F)c(=O)n2CC1CCCO1` (racemic) [Example 434, 5-Methyl-6-[(5-oxo-4,5-dihydro-H-1,2,4-triazol-1-yl)methyl]-1-(tetrahydrofuran-2-ylmethyl)-3-(2,2,2-trifluoroethyl)thieno[2,3-d]pyrimidine-2,4(1H,3H)-dione], 82 nM.
